From patent US8791132B2, “Compounds and methods for treatment of hypertension” (Medivation Technologies, Inc., priority 2011, dated 2014)
“And” between values parts separate entries of the source, which are not always exact repeats. Equal entries are not always repeated. Where two headings read alike, the source gives them in different places. One block for each compound: values may come before it.

Tests used:
[1] = target: T1, human recombinant adrenergic α2A receptor (Homo sapiens, UniProt P08913); assay: Radioligand binding, adrenergic α2A ([3H]MK-912); conditions: for Percentage inhibition of ligand binding, Adrenergic α2A: 0.1 µM
T1 construct: expressed in transfected cells; host or cells: insect Sf9 cells
T1 sequence (P08913 1-465): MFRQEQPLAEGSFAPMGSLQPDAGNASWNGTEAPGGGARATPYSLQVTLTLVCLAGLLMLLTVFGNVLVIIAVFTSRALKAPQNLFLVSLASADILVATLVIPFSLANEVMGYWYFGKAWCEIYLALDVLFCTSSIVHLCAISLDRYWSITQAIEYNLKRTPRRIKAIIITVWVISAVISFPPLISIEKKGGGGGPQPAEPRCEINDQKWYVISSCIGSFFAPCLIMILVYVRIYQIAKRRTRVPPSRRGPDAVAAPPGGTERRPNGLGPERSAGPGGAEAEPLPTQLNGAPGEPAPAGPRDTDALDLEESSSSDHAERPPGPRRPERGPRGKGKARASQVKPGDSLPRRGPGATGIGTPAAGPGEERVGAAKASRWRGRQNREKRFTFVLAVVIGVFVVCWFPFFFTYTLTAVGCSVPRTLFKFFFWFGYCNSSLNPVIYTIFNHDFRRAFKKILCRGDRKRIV
In short: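 Receptor expressed in Sf9 cells, in 50 mM Tris-HCl pH 7.4, 12.5 mM MgCl2, 2 mM EDTA; compounds incubated with 1 nM [3H]MK-912 for 60 min at 25 °C.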

[2] = target: T2, rat adrenergic α1B receptor (Rattus norvegicus, UniProt P15823); assay: Radioligand binding, adrenergic α1B ([3H]Prazosin)
T2 construct: rat adrenergic α1B receptor obtained from Wistar Rat liver; from tissue; host or cells: Wistar rat liver
T2 sequence (P15823 1-515): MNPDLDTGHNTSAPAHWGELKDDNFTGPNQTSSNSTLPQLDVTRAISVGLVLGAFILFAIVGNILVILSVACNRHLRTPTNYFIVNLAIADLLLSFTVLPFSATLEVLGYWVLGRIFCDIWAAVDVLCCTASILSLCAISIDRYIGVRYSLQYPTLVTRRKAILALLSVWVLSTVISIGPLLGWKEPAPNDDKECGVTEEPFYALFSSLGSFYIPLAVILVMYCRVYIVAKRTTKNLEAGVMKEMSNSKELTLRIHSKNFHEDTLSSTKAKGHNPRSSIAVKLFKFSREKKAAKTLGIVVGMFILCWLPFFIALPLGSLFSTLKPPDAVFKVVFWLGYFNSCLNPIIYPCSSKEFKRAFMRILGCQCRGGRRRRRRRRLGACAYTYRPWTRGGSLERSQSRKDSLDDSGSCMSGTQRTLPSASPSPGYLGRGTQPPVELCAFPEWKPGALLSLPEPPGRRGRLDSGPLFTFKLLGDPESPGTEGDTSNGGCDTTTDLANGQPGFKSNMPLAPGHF
In short: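 Rat α1B receptor from Wistar rat liver was incubated with 0.25 nM [3H]prazosin for 60 min at 25 °C in 50 mM Tris-HCl, pH 7.4, 0.5 mM EDTA. Non-specific binding was defined with 10 μM phentolamine. Bound radioligand was measured by filtration and counting, reported as percent inhibition of specific binding.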

[3] = target: T3, human recombinant adrenergic α2B receptor (Homo sapiens, UniProt P18089); assay: Radioligand binding, adrenergic α2B ([3H]Rauwolscine)
T3 construct: expressed in transfected cells; host or cells: CHO-K1
T3 sequence (P18089 1-450): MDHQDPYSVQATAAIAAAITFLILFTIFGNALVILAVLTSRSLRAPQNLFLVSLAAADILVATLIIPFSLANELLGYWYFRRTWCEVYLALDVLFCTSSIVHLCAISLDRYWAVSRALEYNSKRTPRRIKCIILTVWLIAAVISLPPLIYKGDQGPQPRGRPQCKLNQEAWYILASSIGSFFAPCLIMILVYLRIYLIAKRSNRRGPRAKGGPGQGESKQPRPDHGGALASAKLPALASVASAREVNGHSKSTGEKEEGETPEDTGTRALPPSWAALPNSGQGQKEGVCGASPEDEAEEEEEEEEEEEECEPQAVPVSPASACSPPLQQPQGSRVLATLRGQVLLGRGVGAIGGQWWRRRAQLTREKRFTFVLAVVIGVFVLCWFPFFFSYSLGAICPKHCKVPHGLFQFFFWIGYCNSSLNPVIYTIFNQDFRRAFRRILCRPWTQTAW
In short: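 Assay used CHO-K1-expressed human α2B receptor in Tris-HCl pH 7.4 buffer with MgCl2, EDTA and BSA; 60 min incubation at 25 °C.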

[4] = compound at 0.1 μM, [3H]MK-912, repeat assays, each datapoint shown
[5] = compound at 0.1 μM, [3H]Prazosin, repeat assays, each datapoint shown, 0.1 µM
[6] = compound at 0.03 μM, [3H]Rauwolscine, repeat assays, each datapoint shown, 0.03 µM
[7] = read-out: Percentage inhibition of ligand binding, Adrenergic α2A (0.1 μM), compound at 0.1 μM, [3H]MK-912, repeat datapoints each shown
[8] = read-out: Percentage inhibition of ligand binding, Adrenergic α1B (0.1 μM), compound at 0.1 μM, [3H]Prazosin, repeat datapoints each shown
[9] = read-out: Percentage inhibition of ligand binding, Adrenergic α2B (0.03 μM), compound at 0.03 μM, [3H]Rauwolscine, repeat datapoints each shown
[10] = compound at 0.1 μM, [3H]MK-912, repeat assays, each datapoint shown, read-out: Percentage inhibition of ligand binding, Adrenergic α2A
[11] = compound at 0.03 μM, [3H]Rauwolscine, repeat assays, each datapoint shown, read-out: Percentage inhibition of ligand binding, Adrenergic α2B
[12] = 0.1 μM compound, read-out: Percentage inhibition of ligand binding, Adrenergic α2A
[13] = 0.03 μM compound, read-out: Percentage inhibition of ligand binding, Adrenergic α2B

Structure (SMILES): OC(Cn1c2c(c3cccnc31)CN1CCCC1C2)c1ccncc1 (single isomer, unassigned) [37a]
- Percentage inhibition of ligand binding, Adrenergic α2A [1, 4]: 18%
- Percentage inhibition of ligand binding, Adrenergic α1B [2, 5]: −5%
- Percentage inhibition of ligand binding, Adrenergic α2B [3, 6]: 2%

Structure (SMILES): Cc1cnc2c(c1)c1c(n2CC(N)c2ccncc2)CCN(C)C1 (stereo not shown) [compound 156]
- inhibition at 0.1 µM [1, 7]: 1%
- inhibition at 0.1 µM [2, 8]: 21%
- inhibition at 0.03 µM [3, 9]: 6%

Structure (SMILES): Cc1ccc2c(c1)c1c(n2CC(C)(c2cnccn2)N(C)C)CCN2CCCC12 (single isomer, unassigned) [II-6b, dimethyl-[1-methyl-2-(9-methyl-1,2,3,4,5,10c-hexahydro-3a,6-diaza-cyclopenta[c]fluoren-6-yl)-1-pyrazin-2-yl-ethyl]-amine]
- Percentage inhibition of ligand binding, Adrenergic α2A ([1]; 0.1 μM compound): 81%
- Percentage inhibition of ligand binding, Adrenergic α1B ([2]; 0.1 μM compound, 0.1 µM): 91%
- Percentage inhibition of ligand binding, Adrenergic α2B ([3]; 0.03 μM compound, 0.03 µM): 102%

Structure (SMILES): OC(Cn1c2c(c3cccnc31)CN1CCCC1C2)c1ccncc1 (single isomer, unassigned) [37d]
- Percentage inhibition of ligand binding, Adrenergic α2A [1, 4]: 8%
- Percentage inhibition of ligand binding, Adrenergic α1B [2, 5]: 2%
- Percentage inhibition of ligand binding, Adrenergic α2B [3, 6]: −3%

Structure (SMILES): Cc1ccc(CCn2c3c(c4c(Cl)ccc(F)c42)CN(C)CC3)cn1 [II-248, 9-chloro-6-fluoro-2,3,4,5-tetrahydro-2-methyl-5-(2-(6-methylpyridin-3-yl)ethyl)-1H-pyrido[4,3-b]indole]
- inhibition at 0.1 µM [1, 7]: 88%
- inhibition at 0.1 µM [2, 8]: 4%
- inhibition at 0.03 µM [3, 9]: 5%

Structure (SMILES): Cc1ccc2c(c1)c1c(n2CC(C)(O)c2ccc(C(=O)O)nc2)CCN(C)C1 (stereo not shown) [compound 169, 5-(1-(1,2,3,4-tetrahydro-2,8-dimethylpyrido[4,3-b]indol-5-yl)-2-hydroxypropan-2-yl)pyridine-2-carboxylic acid]
- inhibition at 0.1 µM [1, 7]: 15%
- inhibition at 0.1 µM [2, 8]: 2%
- inhibition at 0.03 µM [3, 9]: 20%

Structure (SMILES): Cc1ccc2c(c1)c1c(n2CC(C)(c2cnccn2)N(C)C)CCN2CCCC12 (single isomer, unassigned) [II-6a, dimethyl-[1-methyl-2-(9-methyl-1,2,3,4,5,10c-hexahydro-3a,6-diaza-cyclopenta[c]fluoren-6-yl)-1-pyrazin-2-yl-ethyl]-amine]
- Percentage inhibition of ligand binding, Adrenergic α2A ([1]; 0.1 μM compound): 45%
- Percentage inhibition of ligand binding, Adrenergic α1B ([2]; 0.1 μM compound, 0.1 µM): 66%
- inhibition at 0.03 µM [3, 13]: 85%

Structure (SMILES): COc1ccc(C(O)Cn2c3c(c4cc(C)ccc42)CCN(C)C3)cc1 (single isomer, unassigned) [20a, 2-(2,6-dimethyl-1,2,3,4-tetrahydro-β-carbolin-9-yl)-1-(4-methoxy-phenyl)-ethanol]
- inhibition at 0.1 µM [1, 10]: 29%
- Percentage inhibition of ligand binding, Adrenergic α1B [2, 5]: 67%
- inhibition at 0.03 µM [3, 11]: 28%

Structure (SMILES): Cc1ccc2c(c1)c1c(n2CC(C)(O)c2ccc(F)cc2)CCN(C)C1 (single isomer, unassigned) [90b]
- Percentage inhibition of ligand binding, Adrenergic α2A [1, 4]: 82%
- Percentage inhibition of ligand binding, Adrenergic α1B [2, 5]: 81%
- Percentage inhibition of ligand binding, Adrenergic α2B ([3]; compound at 0.03 μM, [3H]Rauwolscine, repeat assays, each datapoint shown): 97%

Structure (SMILES): Cc1ccc2c(c1)c1c(n2CC(OC(=O)C(C)(C)C)c2ccncc2)CCN(C)C1 (single isomer, unassigned) [130a]
- Ki [1]: 6.91 nM
- Percentage inhibition of ligand binding, Adrenergic α1B (0.03 μM) ([2]; compound at 0.03 μM, [3H]Prazosin, repeat datapoints each shown, 0.03 µM): 32%
- Percentage inhibition of ligand binding, Adrenergic α1B (0.1 μM) ([2]; compound at 0.1 μM, [3H]Prazosin, repeat datapoints each shown, 0.1 µM): 66% and 68%
- Percentage inhibition of ligand binding, Adrenergic α2B (0.03 μM) ([3]; compound at 0.03 μM, [3H]Rauwolscine, repeat datapoints each shown, 0.03 µM): 104%
- Ki ([3]; read-out: Ki α2B): 1.66 nM
- inhibition at 0.03 µM [3, 9]: 100%
- inhibition at 0.1 µM ([3]; read-out: Percentage inhibition of ligand binding, Adrenergic α2B (0.1 μM), compound at 0.1 μM, [3H]Rauwolscine, repeat datapoints each shown): 107%

Structure (SMILES): COc1ccc(C(C)(O)Cn2c3c(c4cc(C)ccc42)CN(C)CC3)cn1 (stereo not shown) [compound 64, 1-(2,8-dimethyl-1,2,3,4-tetrahydro-pyrido[4,3-b]indol-5-yl)-2-(6-methoxy-pyridin-3-yl)-propan-2-ol]
- inhibition at 0.1 µM [1, 10]: 12%
- inhibition at 0.1 µM ([2]; compound at 0.1 μM, [3H]Prazosin, repeat assays, each datapoint shown, read-out: Percentage inhibition of ligand binding, Adrenergic α1B): 25%
- inhibition at 0.03 µM [3, 11]: 62%

Further lines, results first:

- inhibition at 0.1 µM [1, 10]: 3%
- Percentage inhibition of ligand binding, Adrenergic α1B [2, 5]: 23%
- inhibition at 0.03 µM [3, 11]: 24%
Structure (SMILES): CC(O)(Cn1c2c(c3cc(Cl)cnc31)CNCC2)c1ccncc1 (single isomer, unassigned) [12a, 1-(3-chloro-5,6,7,8-tetrahydro-1,6,9-triaza-fluoren-9-yl)-2-pyridin-4-yl-propan-2-ol]

- Percentage inhibition of ligand binding, Adrenergic α2A [1, 4]: 15%
- Percentage inhibition of ligand binding, Adrenergic α1B [2, 5]: 28%
- Percentage inhibition of ligand binding, Adrenergic α2B [3, 6]: 91%
Structure (SMILES): OC(Cn1c2c(c3cc(Cl)ccc31)CNCC2)c1ccncc1 (single isomer, unassigned) [10b, 2-(8-chloro-1,2,3,4-tetrahydro-pyrido[4,3-b]indol-5-yl)-1-pyridin-4-yl-ethanol]

- inhibition at 0.1 µM [1, 12]: 7%
- Percentage inhibition of ligand binding, Adrenergic α1B ([2]; 0.1 μM compound): 6%
- Percentage inhibition of ligand binding, Adrenergic α2B ([3]; 0.03 μM compound): 24%
Structure (SMILES): OCCN1CCc2c(c3cc(Cl)ccc3n2CC(O)c2ccncc2)C1 (stereo not shown) [II-93a]

- Percentage inhibition of ligand binding, Adrenergic α2A [1, 4]: 1%
- Percentage inhibition of ligand binding, Adrenergic α1B [2, 5]: 28%
- Percentage inhibition of ligand binding, Adrenergic α2B [3, 6]: 59%
Structure (SMILES): CN1CCc2c(c3cc(Cl)ccc3n2CC(O)c2cccnc2)C1 (single isomer, unassigned) [7a]

- Percentage inhibition of ligand binding, Adrenergic α2A [1, 4]: 4%
- Percentage inhibition of ligand binding, Adrenergic α1B [2, 5]: 6%
- Percentage inhibition of ligand binding, Adrenergic α2B [3, 6]: 53%
Structure (SMILES): Cc1ccc2c(c1)c1c(n2CC(O)c2ccncc2)CCN2CCCCC12 (single isomer, unassigned) [47c]

- inhibition at 0.1 µM [1, 12]: 10%
- inhibition at 0.1 µM ([2]; 0.1 μM compound, read-out: Percentage inhibition of ligand binding, Adrenergic α1B): 7%
- inhibition at 0.03 µM [3, 13]: 47%
Structure (SMILES): Cc1ccc2c(c1)c1c(n2CC(NC(C)C)c2ccncc2)CCN(C)C1 (stereo not shown) [II-10, [2-(2,8-dimethyl-1,2,3,4-tetrahydro-pyrido[4,3-b]indol-5-yl)-1-pyridin-4-yl-ethyl]-isopropyl-amine]

- Percentage inhibition of ligand binding, Adrenergic α2A [1, 4]: 32%
- Percentage inhibition of ligand binding, Adrenergic α1B [2, 5]: 87%
- Percentage inhibition of ligand binding, Adrenergic α2B [3, 6]: 61%
Structure (SMILES): Cc1ccc2c(c1)c1c(n2CC(O)c2ccc(F)cc2)CN(C)CC1 (single isomer, unassigned) [18b, 2-(2,6-dimethyl-1,2,3,4-tetrahydro-β-carbolin-9-yl)-1-(4-fluoro-phenyl)-ethanol]
